Key:
proline hydroxylase [1] = test: Inhibition of collagen proline hydroxylation in organ culture (isolated calvariae / EHS sarcoma tissue), ratio of 14C-proline to 14C-hydroxyproline; assay type: cell-based; conditions: Inhibition 50 %; incubation with 14C-proline, ratio 14C-proline to 14C-hydroxyproline in extracted collagen; read-out: Conc. giving the stated Inhibition, % (50)
Method: Determination of the inhibitory effect is described below.
(a) Tissue of the EHS sarcoma tumor, which produces an extracellular matrix resembling basal membrane and produces, in particular, type IV collagen (Erkin et al., Exp. Med. 145 (1977) 204-220), is incubated in analogy to the method of K. Tryggvason et al. (Biochemistry 19 (1980) 1248-1289) in the presence of ^14 C-proline and of inhibitors in various concentrations. After the incubation has been stopped, the tissue is homogenized and extracted with dilute acetic acid. After NaCl precipitation, the extracted collagen was hydrolyzed with 6 M HCl, and the ratio of ^14 C-proline to ^14 C-hydroxyproline was determined.
(b) Isolated calvariae are incubated in analogy to the method of B. Peterkovsky and R. DiBlasio (Anal. Biochem. 66 (1975) 279-286) in the presence of U-^14 C-proline and inhibitors. After the incubation has been stopped, the calvariae are homogenized, and the collagen is extracted with dilute acetic acid. After hydrolysis of the extract with 6 M HCl, the ratio of ^14 C-proline to ^14 C-hydroxyproline is determined.

[2] = tested on: collagen biosynthesis in cell culture; conditions: cited from earlier work
proline hydroxylase [3] = target: T1, proline hydroxylase (Gallus gallus, UniProt P16924); conditions: cited from earlier work
T1 sequence (P16924 1-516): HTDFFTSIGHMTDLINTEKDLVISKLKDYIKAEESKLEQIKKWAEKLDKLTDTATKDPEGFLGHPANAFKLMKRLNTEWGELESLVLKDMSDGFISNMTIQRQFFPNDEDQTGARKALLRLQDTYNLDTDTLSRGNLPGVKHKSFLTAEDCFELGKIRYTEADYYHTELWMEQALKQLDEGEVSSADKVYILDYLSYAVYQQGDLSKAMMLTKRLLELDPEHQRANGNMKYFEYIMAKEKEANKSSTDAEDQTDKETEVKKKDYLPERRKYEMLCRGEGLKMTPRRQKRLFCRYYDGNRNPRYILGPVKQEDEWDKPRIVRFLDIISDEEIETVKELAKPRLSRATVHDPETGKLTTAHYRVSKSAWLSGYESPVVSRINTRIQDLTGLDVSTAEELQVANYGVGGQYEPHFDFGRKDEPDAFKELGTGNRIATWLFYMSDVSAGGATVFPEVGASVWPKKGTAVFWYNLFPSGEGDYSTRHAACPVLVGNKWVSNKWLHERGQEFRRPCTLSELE
T1 sequence (P09102 23-515 partner): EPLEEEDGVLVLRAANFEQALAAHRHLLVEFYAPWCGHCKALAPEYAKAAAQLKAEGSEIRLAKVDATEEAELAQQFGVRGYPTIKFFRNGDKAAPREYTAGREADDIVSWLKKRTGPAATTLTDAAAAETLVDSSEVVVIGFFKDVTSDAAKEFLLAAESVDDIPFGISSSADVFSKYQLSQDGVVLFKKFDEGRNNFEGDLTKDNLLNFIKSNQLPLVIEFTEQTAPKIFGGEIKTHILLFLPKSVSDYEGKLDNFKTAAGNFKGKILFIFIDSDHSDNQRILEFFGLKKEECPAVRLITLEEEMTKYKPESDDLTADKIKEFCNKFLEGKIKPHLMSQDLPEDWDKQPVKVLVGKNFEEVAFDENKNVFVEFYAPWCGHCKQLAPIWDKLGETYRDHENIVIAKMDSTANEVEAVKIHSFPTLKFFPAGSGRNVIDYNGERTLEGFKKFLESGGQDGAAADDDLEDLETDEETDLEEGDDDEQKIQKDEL

[4] = tested on: Clq biosynthesis by macrophages; conditions: cited from earlier work

| Compound | IC50 (proline hydroxylase [1]) [µM] | inhibitory effectiveness in cell culture [2] | inhibition of proline hydroxylase (proline hydroxylase [3]) | inhibition of Clq biosynthesis by macrophages [4] |
| --- | --- | --- | --- | --- |
| CCOC(=O)c1ccnc(C(=O)OCC)c1 [C2 H5 4] | 3 | – | – | – |
| c1ccc(-c2ccccn2)nc1 [α,α'-dipyridyl] | – | – | – | leads to inhibition of Clq biosynthesis |

Now from value to molecule, other results behind:

| IC50 (proline hydroxylase [1]) [µM] | Compound | inhibitory effectiveness in cell culture [2] | inhibition of proline hydroxylase (proline hydroxylase [3]) | inhibition of Clq biosynthesis by macrophages [4] |
| --- | --- | --- | --- | --- |
| 90 | CCOC(=O)c1ccc(C(=O)OCC)nc1 [C2 H5 5] | – | – | – |
| 670 | O=C(O)c1ccnc(C(=O)O)c1 [H 4] | effective inhibitors only in very high concentrations | effectively inhibited | – |
| 2100 | O=C(O)c1ccc(C(=O)O)nc1 [H 5] | effective inhibitors only in very high concentrations | effectively inhibited | – |
